Data reported in PubChem BioAssay (NCI).
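All cell lines were grown in 96-well plates and treated with compound for 48 hours. Definition used: TGI = concentration required for complete inhibition of growth.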 Where a SMILES comes first, the peptide text is derived from it. [ ]: non-standard residue; d: D form. The star is where a group is joined. hSer = N[CH](CCO)C(=O)O; Boc = CC(C)(C)OC(=O)*

Experiments:
Experiment in all cases: NCI anticancer screen, dose series, 48 h
[1] = tested on: COLO 205 colon
[2] = tested on: DU-145 prostate
[3] = tested on: UACC-62 melanoma
[4] = tested on: HCC-2998 colon
[5] = tested on: T-47D breast
[6] = tested on: HCT-116 colon
[7] = tested on: HL-60(TB) leukemia
[8] = tested on: BT-549 breast
[9] = tested on: CCRF-CEM leukemia
[10] = tested on: NCI/ADR-RES ovarian

Structure (SMILES)	TGI [1]	TGI [2]	TGI [3]	TGI [4]	TGI [5]	TGI [6]	TGI [7]	TGI [8]	TGI [9]	TGI [10]
COc1ccc(-n2c(CCCC(=O)O)nc3c2C(=O)c2ccccc2C3=O)cc1	> 100 µM	> 100 µM	> 100 µM	> 100 µM	> 100 µM	> 100 µM	> 100 µM	> 100 µM	> 100 µM	> 100 µM
COC1/C=C\C=C(/C)C(=O)NC2=CC(=O)C(NCCCl)=C(CC(C)CC(OC)C(O)C(C)/C=C(/C)C1OC(N)=O)C2=O (centres undefined)	1.2 µM	11.4 µM	1.33 µM	1 µM	20.4 µM	2.88 µM	3.23 µM	2.85 µM	21.9 µM	31.1 µM
CCOC(=O)c1cc2cc(Cc3ccc4[nH]c(C(=O)OCC)cc4c3)ccc2[nH]1	> 100 µM	> 100 µM	36.3 µM	> 100 µM	> 100 µM	> 100 µM	> 100 µM	26.8 µM	> 100 µM	52.6 µM
CN(C)CC1CCC/C(=C\c2ccc(N(C)C)cc2)C1=O (centres undefined)	6.65 µM	34 µM	29.2 µM	29.4 µM	4.11 µM	10.1 µM	> 100 µM	29.7 µM	> 100 µM	65.3 µM
CC1(C)CCc2c(cc3c(c2O)CCC(C)(C)O3)O1	> 100 µM	> 100 µM	> 100 µM	> 100 µM	> 100 µM	> 100 µM	77.9 µM	> 100 µM	> 100 µM	> 100 µM
O=c1cnn(C2OC(CO)C(O)C(F)C2O)c(=O)[nH]1 (centres undefined)	> 100 µM	> 100 µM	> 100 µM	> 100 µM	> 100 µM	> 100 µM	> 100 µM	> 100 µM	> 100 µM	> 100 µM
COc1c2cc(C(C)(C)C)cc1CSCc1cc(C(C)(C)C)cc(c1OC)CCCCC2	> 50 µM	> 50 µM	> 50 µM	> 50 µM	> 50 µM	> 50 µM	> 50 µM	> 50 µM	> 50 µM	> 50 µM
N#CI1OC(=O)c2ccccc21	> 100 µM	> 100 µM	> 100 µM	> 100 µM	> 100 µM	> 100 µM	> 100 µM	> 100 µM	> 100 µM	> 100 µM
CC1C(c2ccc(N(C)C)cc2)c2cc3c(cc2OC1N1CCCC1)OCO3 (centres undefined)	> 100 µM	> 100 µM	> 100 µM	> 100 µM	> 100 µM	> 100 µM	73.6 µM	> 100 µM	> 100 µM	> 94.1 µM
c1cc(-c2cscc2-c2ccsc2)cs1	> 100 µM	> 100 µM	> 100 µM	91.8 µM	> 100 µM	> 100 µM	> 100 µM	> 100 µM	> 100 µM	> 100 µM
O=S(=O)(O)c1ccc(NN(c2c(O)ccc3ccccc23)S(=O)(=O)O)cc1	> 100 µM	> 100 µM	> 100 µM	> 100 µM	> 100 µM	> 100 µM	> 100 µM	> 100 µM	> 100 µM	> 100 µM
CCOC(=O)NNC(=O)NCCNC(=O)NNC(=O)OCC	> 100 µM	> 100 µM	> 100 µM	> 100 µM	> 100 µM	> 100 µM	> 100 µM	> 100 µM	> 100 µM	> 100 µM
NC1=CN(CCCO)C2=N/C(=C\c3ccco3)C(=O)N12	> 100 µM	> 100 µM	> 100 µM	> 100 µM	> 100 µM	> 100 µM	> 100 µM	> 100 µM	> 100 µM	> 100 µM
CSc1n[nH]c(N)c1C(=O)Nc1ccc(Cl)cc1	> 100 µM	> 100 µM	> 100 µM	> 100 µM	> 100 µM	56 µM	> 100 µM	> 100 µM	> 100 µM	> 100 µM
COc1cc2c(cc1OC)C(=O)N(c1ccc(O)cc1)C2	> 100 µM	> 100 µM	> 100 µM	> 100 µM	> 100 µM	> 100 µM	> 100 µM	> 100 µM	> 100 µM	> 100 µM
COc1ccc(-n2sc3ncc(-c4ccccc4)cc3c2=O)cc1	> 100 µM	> 100 µM	> 100 µM	> 100 µM	> 100 µM	57.8 µM	> 100 µM	> 100 µM	> 100 µM	> 100 µM
COc1ccc(C(=O)C2CC3(CCC2(O)c2ccc(OC)cc2)CC(=O)Nc2ccccc2C3=O)cc1 (centres undefined)	> 100 µM	> 100 µM	> 100 µM	> 100 µM	> 100 µM	> 100 µM	> 100 µM	> 100 µM	> 100 µM	> 100 µM
COc1ccc2c(O)c3[n+](cc2c1OC)CCc1cc2c(cc1-3)OCO2	> 100 µM	> 100 µM	> 100 µM	> 100 µM	> 100 µM	> 100 µM	> 100 µM	> 100 µM	> 100 µM	> 100 µM
COc1ccc(C[C@@H]2CN(C(=O)c3ccccc3)[C@H](Cc3ccc(O)cc3)CN2C(=O)c2ccccc2)cc1Br	> 100 µM	> 100 µM		> 100 µM	> 100 µM	> 100 µM	> 100 µM	> 100 µM	> 100 µM	> 100 µM
COCCC(NC(=O)C(CC(C)C)NC(=O)OC(C)(C)C)C(N)=O (stereo not drawn) (Boc-Leu-[hSer](Me)-NH2; configuration not given here)	> 100 µM	> 100 µM	> 100 µM	> 100 µM	> 100 µM	> 100 µM	> 100 µM	> 100 µM	> 100 µM	> 100 µM
COc1ccc2c(c1O)-c1c(OC)c(OC)cc3c1[C@H](C2)[N+](C)(C)CC3	> 100 µM	> 100 µM	> 100 µM	> 100 µM	> 100 µM	> 100 µM	> 100 µM	> 100 µM	> 100 µM	> 100 µM
O=C(Cc1ccc(Cl)c(Cl)c1)NCCCN1CCN(CCCN2CCCCC2)CC1	29.8 µM	> 100 µM	13.8 µM	9.92 µM	44.4 µM	32.9 µM	37.2 µM	57.4 µM	34 µM	> 100 µM
CCOC(=O)C1(Cc2ccc(C)cc2)Cc2ccc(C)cc2C1=O (centres undefined)	> 78.7 µM	> 100 µM	> 100 µM	> 92.7 µM	> 74.6 µM	> 60.2 µM	23.6 µM	80.8 µM	64.1 µM	32.5 µM
O=C(CCSC(CC(=O)c1ccc(Cl)cc1)c1ccc(Cl)cc1)Nc1ccc(Cl)cc1 (centres undefined)	35.2 µM	27 µM	21.9 µM	27 µM	22.2 µM	18.5 µM	20.4 µM	27.1 µM	5.55 µM	40.2 µM
O=C1N[C@H]2c3c(Cl)sc(Cl)c3C(=O)[C@H]2O1	> 51 µM	> 54.6 µM	36.4 µM	19.9 µM	> 64.8 µM	> 35.6 µM	4.98 µM	45 µM	> 21.2 µM	37.2 µM
COC(=O)C1Cc2c(C)cccc2C1=O (centres undefined)	> 100 µM	> 100 µM	> 100 µM	> 100 µM	> 100 µM	> 100 µM	77.8 µM	> 100 µM	> 100 µM	> 100 µM
CN(NC(=O)c1ccco1)C1=NCCCCN1	> 100 µM	> 100 µM	> 100 µM	> 100 µM	> 100 µM	> 100 µM	> 100 µM	> 100 µM	> 100 µM	> 100 µM
COc1ccc(C2CC(c3cc4c(C)c(C(=O)c5ccccc5)oc4cc3O)=Nc3ccccc3S2)cc1OC (centres undefined)	> 100 µM	> 100 µM	> 85.8 µM	> 100 µM	> 85.8 µM	> 100 µM	> 100 µM	> 100 µM	> 100 µM	> 100 µM
CCC1(O)C=CC(=O)C=C1	> 100 µM	> 64.4 µM	43.6 µM	> 100 µM	67.7 µM	> 100 µM	> 100 µM	> 100 µM	> 100 µM	> 66.8 µM
